Experimental data: patent US11478460B2, “Diaryl substituted 6,5-fused ring compounds as C5aR inhibitors” (CHEMOCENTRYX, INC., priority 2017, dated 2022)

target: C5aR (Homo sapiens (Human), UniProt P21730); assay: Chemotaxis assay using U937 cells (C5aR mediated migration); type: cell-based; details: read-out: Mig IC50
Procedure, shortened: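 Migration toward 0.03 nM C5a, mixed with varying compound in the lower chamber (HBSS with 1% FBS), was measured over 1.5 h at 37° C through 5 μm filters. Upper chamber held 100,000 U937 cells treated overnight with 0.5 mM cAMP; migrated cells quantified by counts or CyQuant for IC50, SDF-1α as specificity control.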

C5aR, sequence (P21730 whole entry): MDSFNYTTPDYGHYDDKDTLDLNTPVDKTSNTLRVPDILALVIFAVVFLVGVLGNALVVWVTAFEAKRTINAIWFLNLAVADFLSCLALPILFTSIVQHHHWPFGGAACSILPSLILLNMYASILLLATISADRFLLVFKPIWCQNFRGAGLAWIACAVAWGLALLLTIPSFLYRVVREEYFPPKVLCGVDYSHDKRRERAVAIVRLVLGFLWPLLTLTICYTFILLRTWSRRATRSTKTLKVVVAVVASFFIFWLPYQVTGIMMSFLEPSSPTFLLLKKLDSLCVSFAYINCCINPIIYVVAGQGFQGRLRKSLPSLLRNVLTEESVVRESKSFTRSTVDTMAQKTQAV

SMILES	IC50
Cc1cccc(OCC(C)C)c1-n1nc2c(c1-c1ccc(NC(N)=O)cc1)CN(Cc1cc(Cl)ccc1OC(C)C)CC2 [Example 1.280]	5 to 50 nM
CCc1cccc(CC)c1-n1nc2c(c1-c1ccc(NC(N)=O)cc1)CN(C(c1ccccc1C(F)(F)F)C(C)C)CC2 (stereo not drawn) [Example 1.281]	≤ 5 nM
CCc1cccc(CC)c1-n1nc2c(c1-c1ccc(NC(N)=O)cc1)CN(CC(C)(C)C)CC2 [Example 1.282]	5 to 50 nM
CCc1cccc(CC)c1-n1nc2c(c1-c1ccc(NC(N)=O)cc1)CN(Cc1ccccn1)CC2 [Example 1.283]	> 500 nM
CCc1cccc(CC)c1-n1nc2c(c1-c1ccc(NC(N)=O)cc1)CN(Cc1cc(Cl)ccc1OC(C)C)CC2 [Example 1.284]	5 to 50 nM
CCc1cccc(CC)c1-n1nc2c(c1-c1ccc(NC(N)=O)cc1)CN(CC(C)(C)C(F)(F)F)CC2 [Example 1.285]	5 to 50 nM
CCc1cccc(CC)c1-n1nc2c(c1-c1ccc(NC(N)=O)cc1)CN(C(CC)c1ccccc1C(F)(F)F)CC2 (stereo not drawn) [Example 1.286]	5 to 50 nM
Cc1cc(C)c(-n2nc3c(c2-c2ccc(NC(N)=O)cc2)CN(c2ncc(C(F)(F)F)cc2F)CC3)c(C)c1 [Example 1.287]	5 to 50 nM
Cc1cccc(OCC(C)C)c1-n1nc2c(c1-c1ccc(NC(N)=O)c(F)c1)CN(c1ncc(C(F)(F)F)cc1F)CC2 [Example 1.288]	≤ 5 nM
Cc1cccc(OCC(C)C)c1-n1nc2c(c1-c1ccc(NC(=O)N(C)C)cc1)CN(c1ncc(C(F)(F)F)cc1F)CC2 [Example 1.289]	> 500 nM
CCc1cccc(CC)c1-n1nc2c(c1-c1ccc(NC(N)=O)cc1)CN(Cc1c(C)cccc1C)CC2 [Example 1.290]	5 to 50 nM
CCc1cccc(CC)c1-n1nc2c(c1-c1ccc(NC(N)=O)cc1)CN(Cc1cc(Cl)ccc1Cl)CC2 [Example 1.291]	5 to 50 nM
CCc1cccc(CC)c1-n1nc2c(c1-c1ccc(NC(N)=O)cc1)CN(Cc1cc(Cl)ccc1C(F)(F)F)CC2 [Example 1.292]	5 to 50 nM
CCc1cccc(CC)c1-n1nc2c(c1-c1ccc(NC(N)=O)cc1)CN(Cc1ccccc1C(F)(F)F)CC2 [Example 1.293]	5 to 50 nM
Cc1cccc(OCC(C)C)c1-n1nc2c(c1-c1ccc(N)c(F)c1)CN(c1ncc(C(F)(F)F)cc1F)CC2 [Example 1.294]	5 to 50 nM
CCc1cccc(CC)c1-n1nc2c(c1-c1ccc(NC(N)=O)cc1)CN(C(C)c1ccccc1C(F)(F)F)CC2 (stereo not drawn) [Example 1.295]	5 to 50 nM
Cc1cnc(N2CCc3nn(-c4c(C)cccc4OCC(C)C)c(-c4ccc(NC(N)=O)cc4)c3C2)c(C(F)(F)F)c1 [Example 1.296]	≤ 5 nM
CCc1cccc(CC)c1-n1nc2c(c1-c1ccc(NC(N)=O)cc1)CN(Cc1c(Cl)cccc1C(F)(F)F)CC2 [Example 1.297]	5 to 50 nM
Cc1cccc(OCC(C)C)c1-n1nc2c(c1-c1ccc(NC(N)=O)cc1)CN(S(=O)(=O)c1ccccc1C(F)(F)F)CC2 [Example 1.298]	50 to 500 nM
Cc1cccc(OCC(C)C)c1-n1nc2c(c1-c1ccc(NC(N)=O)cc1)CN(Cc1c(C(F)(F)F)ccc(Cl)c1F)CC2 [Example 1.299]	≤ 5 nM
Cc1ccc(C(F)(F)F)c(CN2CCc3nn(-c4c(C)cccc4OCC(C)C)c(-c4ccc(NC(N)=O)cc4)c3C2)c1 [Example 1.300]	≤ 5 nM

SMILES	IC50
CCc1cccc(CC)c1-n1nc2c(c1-c1ccc(NC(N)=O)cc1)CN(c1ncc(C(F)(F)F)cc1F)CC2 [Example 1.301]	5 to 50 nM
COc1ccc(Cl)c(CN2CCc3nn(-c4c(C)cccc4OCC(C)C)c(-c4ccc(NC(N)=O)cc4)c3C2)c1 [Example 1.302]	5 to 50 nM
Cc1cccc(OCC(C)C)c1-n1nc2c(c1-c1ccc(NC(N)=O)cc1)CN(C(C)c1ccc(C(F)(F)F)cc1)CC2 (stereo not drawn) [Example 1.303]	5 to 50 nM
COc1ccc(CN2CCc3nn(-c4c(C)cccc4OCC(C)C)c(-c4ccc(NC(N)=O)cc4)c3C2)c(Cl)c1 [Example 1.304]	5 to 50 nM
COc1cc(CN2CCc3nn(-c4c(C)cccc4OCC(C)C)c(-c4ccc(NC(N)=O)cc4)c3C2)c(F)cc1Cl [Example 1.305]	5 to 50 nM
Cc1cccc(OCC(C)C)c1-n1nc2c(c1-c1ccc(NC(N)=O)cc1)CN(C(C)c1ccc(C(F)(F)F)cc1)CC2 (stereo not drawn) [Example 1.306]	≤ 5 nM
Cc1cccc(OCC(C)C)c1-n1nc2c(c1-c1ccc(NC(N)=O)cc1)CN(Cc1c(F)cc(F)cc1F)CC2 [Example 1.307]	5 to 50 nM
Cc1ccc(CN2CCc3nn(-c4c(C)cccc4OCC(C)C)c(-c4ccc(NC(N)=O)cc4)c3C2)c(F)c1 [Example 1.308]	≤ 5 nM
Cc1cccc(OCC(C)C)c1-n1nc2c(c1-c1ccc(NC(N)=O)cc1)CN(Cc1cc(Cl)ccc1F)CC2 [Example 1.309]	≤ 5 nM
Cc1cccc(OCC(C)C)c1-n1nc2c(c1-c1ccc(NC(N)=O)cc1)CN(Cc1cc(F)ccc1F)CC2 [Example 1.310]	5 to 50 nM
Cc1cccc(CCC(C)C)c1-n1nc2c(c1-c1ccc(NC(N)=O)cc1)CN(c1ncc(C(F)(F)F)cc1F)CC2 [Example 1.311]	5 to 50 nM
Cc1ccc(CN2CCc3nn(-c4c(C)cccc4OCC(C)C)c(-c4ccc(NC(N)=O)cc4)c3C2)c(Cl)c1 [Example 1.312]	≤ 5 nM
Cc1cccc(OCC(C)C)c1-n1nc2c(c1-c1ccc(NC(N)=O)cc1)CN(Cc1ccccc1Cl)CC2 [Example 1.313]	5 to 50 nM
Cc1cccc(OCC(C)C)c1-n1nc2c(c1-c1ccc(NC(N)=O)cc1)CN(C(C)c1cccc(C(F)(F)F)c1)CC2 (stereo not drawn) [Example 1.314]	5 to 50 nM
Cc1cccc(OCC(C)C)c1-n1nc2c(c1-c1ccc(NC(N)=O)cc1)CN(Cc1ccc(C(F)(F)F)cc1Cl)CC2 [Example 1.315]	≤ 5 nM
Cc1cccc(OCC(C)C)c1-n1nc2c(c1-c1ccc(NC(N)=O)cc1)CN(Cc1ccc(F)cc1F)CC2 [Example 1.316]	≤ 5 nM
Cc1cccc(OCC(C)C)c1-n1nc2c(c1-c1ccc(NC(N)=O)cc1)CN(c1ccc(Cl)cc1C(F)(F)F)CC2 [Example 1.317]	≤ 5 nM
Cc1cccc(OCC(C)C)c1-n1nc2c(c1-c1ccc(NC(N)=O)cc1)CN(c1ccc(F)cc1C(F)(F)F)CC2 [Example 1.318]	≤ 5 nM
Cc1cccc(OCC(C)C)c1-n1nc2c(c1-c1ccc(NC(N)=O)cc1)CN(C(C)c1cccc(C(F)(F)F)c1)CC2 (stereo not drawn) [Example 1.319]	≤ 5 nM
Cc1cccc(OCC(C)C)c1-n1nc2c(c1-c1ccc(NC(N)=O)cc1)CN(Cc1cc(F)ccc1Cl)CC2 [Example 1.320]	≤ 5 nM
Cc1ccc(N2CCc3nn(-c4c(C)cccc4OCC(C)C)c(-c4ccc(NC(N)=O)cc4)c3C2)c(C(F)(F)F)c1 [Example 1.321]	≤ 5 nM

SMILES	IC50
Cc1cccc(OCC(C)C)c1-n1nc2c(c1-c1ccc(NC(N)=O)cc1)CN(c1ncc(F)cc1C(F)(F)F)CC2 [Example 1.322]	≤ 5 nM
Cc1cccc(OCC(C)C)c1-n1nc2c(c1-c1ccc(NC(N)=O)cc1)CN(Cc1ccc(Cl)cc1F)CC2 [Example 1.323]	≤ 5 nM
Cc1cccc(OCC(C)C)c1-n1nc2c(c1-c1ccc(NC(N)=O)cc1)CN(Cc1cc(Cl)ccc1Cl)CC2 [Example 1.324]	≤ 5 nM
Cc1cccc(OCC(C)C)c1-n1nc2c(c1-c1ccc(NC(N)=O)cc1)CN(Cc1cc(Cl)ccc1C(F)(F)F)CC2 [Example 1.325]	≤ 5 nM
Cc1cccc(OCC(C)C)c1-n1nc2c(c1-c1ccc(NC(N)=O)cc1)CN(Cc1ccc(F)cc1Cl)CC2 [Example 1.326]	≤ 5 nM
Cc1cccc(OCC(C)C)c1-n1nc2c(c1-c1ccc(NC(N)=O)cc1)CN(Cc1ccc(Cl)cc1C(F)(F)F)CC2 [Example 1.327]	≤ 5 nM
Cc1cccc(OCC(C)C)c1-n1nc2c(c1-c1ccc(NC(N)=O)cc1)CN(Cc1ccc(Cl)cc1Cl)CC2 [Example 1.328]	≤ 5 nM
Cc1cccc(OCC(C)C)c1-n1nc2c(c1-c1ccc(NC(N)=O)cc1)CN(Cc1ccc(C(F)(F)F)cc1F)CC2 [Example 1.329]	≤ 5 nM
Cc1cccc(OCC(C)C)c1-n1nc2c(c1-c1ccc(NC(N)=O)cc1)CN(C(C)c1ccccc1C(F)(F)F)CC2 (stereo not drawn) [Example 1.330]	≤ 5 nM
Cc1cccc(OCC(C)C)c1-n1nc2c(c1-c1ccc(NC(N)=O)cc1)CN(Cc1c(Cl)cc(C(F)(F)F)cc1C(F)(F)F)CC2 [Example 1.332]	≤ 5 nM
Cc1cccc(OCC(C)C)c1-n1nc2c(c1-c1ccc(NC(N)=O)cc1)CN(Cc1c(C(F)(F)F)ccc(Cl)c1Cl)CC2 [Example 1.333]	≤ 5 nM
Cc1cccc(OCC(C)C)c1-n1nc2c(c1-c1ccc(NC(N)=O)cc1)CN(Cc1c(F)cc(C(F)(F)F)cc1C(F)(F)F)CC2 [Example 1.334]	≤ 5 nM
Cc1cccc(OCC(C)C)c1-n1nc2c(c1-c1ccc(NC(N)=O)cc1)CN(Cc1cc(C(F)(F)F)ccc1C(F)(F)F)CC2 [Example 1.335]	≤ 5 nM
Cc1cccc(CCC(C)C)c1-n1nc2c(c1-c1ccc(NC(N)=O)cc1)CN(CC(C)(C)C)CC2 [Example 1.336]	5 to 50 nM
Cc1cccc(CCC(C)C)c1-n1nc2c(c1-c1ccc(NC(N)=O)cc1)CN(Cc1ccc(C(F)(F)F)cc1C(F)(F)F)CC2 [Example 1.337]	5 to 50 nM
Cc1cccc(OCC(C)C)c1-n1nc2c(c1-c1ccc(NC(N)=O)cc1)CN(Cc1cccc(C(F)(F)F)c1)CC2 [Example 1.338]	5 to 50 nM
Cc1cccc(OCC(C)C)c1-n1nc2c(c1-c1ccc(NC(N)=O)cc1)CN(c1nc(C(F)(F)F)ccc1C(F)(F)F)CC2 [Example 1.339]	≤ 5 nM
Cc1cc(C(F)(F)F)cnc1N1CCc2nn(-c3c(C)cccc3OCC(C)C)c(-c3ccc(NC(N)=O)cc3)c2C1 [Example 1.340]	5 to 50 nM
Cc1cccc(OCC(C)C)c1-n1nc2c(c1-c1ccc(NC(N)=O)cc1)CN(c1cnc(C(F)(F)F)cn1)CC2 [Example 1.341]	5 to 50 nM
Cc1cccc(OCC(C)C)c1-n1nc2c(c1-c1ccc(NC(N)=O)cc1)CN(c1cc(C(F)(F)F)ccc1C(F)(F)F)CC2 [Example 1.342]	≤ 5 nM
Cc1cccc(OCC(C)C)c1-n1nc2c(c1-c1ccc(NC(N)=O)cc1)CN(c1ccc(C(F)(F)F)cc1C(F)(F)F)CC2 [Example 1.343]	≤ 5 nM
